Laboratory results from ChEMBL document CHEMBL5233232, “Repurposed drug candidates for antituberculosis therapy” (Eur J Med Chem, 2020).
≈ marks a conversion by molar mass, not a printed value.

Legend:
[1] = test system: Mycobacterium tuberculosis; test: Antitubercular activity against Mycobacterium tuberculosis assessed as bacterial growth inhibition; format: functional
[2] = test system: Mycobacterium tuberculosis; test: Antitubercular activity against Mycobacterium tuberculosis H37Rv assessed as inhibition of bacterial growth incubated for […] by REMA assay; format: functional
[3] = test system: Mycobacterium tuberculosis; test: Antitubercular activity against Mycobacterium tuberculosis H37Rv assessed as inhibition of bacterial growth incubated for 7 days by REMA assay; format: functional; conditions: 168 h, time 7 day
[4] = test system: Mycobacterium tuberculosis; test: Antitubercular activity against Mycobacterium tuberculosis assessed as bacterial growth inhibition by CLSI based broth dilution method; format: functional
[5] = test system: Mycobacterium tuberculosis; test: Antitubercular activity against Mycobacterium tuberculosis H37Rv […] THP-1 cells in presence of rifampin; format: functional, organism-based
[6] = test system: Mycobacterium tuberculosis; test: Antitubercular activity against Mycobacterium tuberculosis H37Rv […] THP-1 cells in presence of isoniazid; format: functional, organism-based
[7] = test system: Mycobacterium tuberculosis; test: Antitubercular activity against Mycobacterium tuberculosis H37Rv […] THP-1 cells in presence of pyrazinamide; format: functional, organism-based
[8] = test system: Mycobacterium tuberculosis; test: Antitubercular activity against Mycobacterium tuberculosis H37Rv assessed as inhibition of bacterial growth incubated for 5 days by REMA assay; format: functional; conditions: 120 h, time 5 day
[9] = test system: Mycobacterium tuberculosis; test: Antitubercular activity against Mycobacterium tuberculosis H37Rv assessed as inhibition of bacterial growth; format: functional
[10] = biological target: T1, Thioredoxin reductase (Mycobacterium tuberculosis) (UniProt P9WHH1); test: Inhibition of Mycobacterium tuberculosis Thioredoxin reductase assessed as inhibition
T1 sequence (whole entry): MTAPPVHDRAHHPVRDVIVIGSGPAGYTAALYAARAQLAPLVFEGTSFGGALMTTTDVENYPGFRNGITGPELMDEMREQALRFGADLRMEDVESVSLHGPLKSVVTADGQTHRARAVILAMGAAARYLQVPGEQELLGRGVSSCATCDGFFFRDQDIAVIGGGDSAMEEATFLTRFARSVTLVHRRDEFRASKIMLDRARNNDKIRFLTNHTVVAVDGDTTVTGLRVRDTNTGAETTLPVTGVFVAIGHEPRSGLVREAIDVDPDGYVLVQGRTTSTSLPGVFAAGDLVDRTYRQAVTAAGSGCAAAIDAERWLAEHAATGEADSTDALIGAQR

[11] = test system: Mycobacterium tuberculosis; test: Antitubercular activity against Mycobacterium tuberculosis H37Ra assessed as inhibition of bacterial growth incubated for 28 days by microbroth dilution method; format: functional; conditions: 672 h, time 28 day
[12] = biological target: T2, Mycosin-1 (Mycobacterium tuberculosis (strain ATCC 25618 / H37Rv)) (UniProt O05461); test: Inhibition of Mycobacterium tuberculosis MycP1 assessed as inhibition rate at 150 uM relative to control
T2 sequence (whole entry): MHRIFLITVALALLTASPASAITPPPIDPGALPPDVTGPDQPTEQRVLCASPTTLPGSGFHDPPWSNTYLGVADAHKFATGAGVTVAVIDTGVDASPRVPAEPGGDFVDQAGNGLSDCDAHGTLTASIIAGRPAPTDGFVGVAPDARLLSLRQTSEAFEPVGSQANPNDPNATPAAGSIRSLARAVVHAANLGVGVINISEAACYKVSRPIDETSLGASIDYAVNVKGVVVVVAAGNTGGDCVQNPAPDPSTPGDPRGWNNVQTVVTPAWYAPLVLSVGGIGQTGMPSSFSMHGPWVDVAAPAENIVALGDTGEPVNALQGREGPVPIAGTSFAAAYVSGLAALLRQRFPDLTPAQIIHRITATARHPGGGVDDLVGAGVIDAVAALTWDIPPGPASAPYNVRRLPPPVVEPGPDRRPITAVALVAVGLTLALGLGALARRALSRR

[13] = test system: Mycobacterium tuberculosis; test: Antitubercular activity against Mycobacterium tuberculosis H37Rv assessed as inhibition of bacterial growth incubated for 2 days by resazurin-based assay; format: functional; conditions: 48 h, time 2 day
[14] = test system: Mycobacterium tuberculosis; test: Antitubercular activity against Mycobacterium tuberculosis H37Rv assessed as inhibition of bacterial growth by incubated for 7 days by resazurin dye based broth microdilution method; format: functional; conditions: 168 h, time 7 day
[15] = test system: Mycobacterium tuberculosis; test: Antitubercular activity against Mycobacterium tuberculosis H37Rv assessed as inhibition of bacterial growth incubated for 5 days by turbidity-based growth inhibition assay; format: functional; conditions: 120 h, time 5 day
[16] = test system: Mycobacterium tuberculosis; test: Antitubercular activity against Mycobacterium tuberculosis H37Rv infected in ip dosed BALB/c mouse assessed as inhibition of bacterial growth; format: functional
[17] = test system: Mycobacterium tuberculosis; test: Antitubercular activity against Mycobacterium tuberculosis H37Rv […] THP-1 cells incubated for 48 hrs by microplate Alamar blue assay; format: functional
[18] = test system: Mycobacterium tuberculosis; test: Antibacterial activity against Mycobacterium tuberculosis H37Rv assessed as fold increase in sensitivity in presence of copper by REMA assay; format: functional
[19] = test system: Mycobacterium tuberculosis; test: Antitubercular activity against Mycobacterium tuberculosis H37Rv assessed as inhibition of bacterial growth incubated for 24 hrs by checkerboard assay; format: functional
[20] = test system: Mycobacterium tuberculosis; test: Antitubercular activity against Mycobacterium tuberculosis H37Rv assessed as inhibition of bacterial growth by broth microdilution method; format: functional

With CC/C=C\C/C=C\C/C=C\CCCCCCCC(=O)O [LINOLENIC ACID] the MIC [1] was greater than 320 µg/mL and the MIC [2] was 200 µg/mL (≈ 718 µM).
Compound CC(C)Cc1ccc(-c2nn(-c3ccccc3)cc2Cn2ccnc2)cc1 has an MIC [3] of 1.56 µg/mL (≈ 4.38 µM).
CSC1=C(C(=O)[O-])N2C(=O)[C@H]([C@@H](C)O)[C@H]2[C@H]1C.[Na+] was tested, and the MIC90 [4] was 0.25 µg/mL.
O[C@@H](c1cc(C(F)(F)F)nc2c(C(F)(F)F)cccc12)[C@H]1CCCCN1 [(S,R)-MEFLOQUINE] gave an MIC [3] of 5 µg/mL (≈ 13.2 µM).
Work on CC[C@H](C)C(=O)O[C@H]1C[C@H](O)C=C2C=C[C@H](C)[C@H](CC[C@@H](O)C[C@@H](O)CC(=O)O)[C@H]21 [PRAVASTATIN] yielded an EC50 [5] of 7.8 µM, an EC50 [6] of 7.8 µM and an EC50 [7] of 7.8 µM.
Compound C[C@@H]1CC[C@H]2[C@@H](C)C(=O)O[C@@H]3O[C@@]4(C)CC[C@@H]1[C@]32OO4 [ARTEMISININ] has an MIC [8] of 75 µg/mL (≈ 266 µM).
COc1ccc(CCN(C)CCCC(C#N)(c2ccc(OC)c(OC)c2)C(C)C)cc1OC (configuration not stated) [VERAPAMIL] showed an MIC [9] of 125 µg/mL.
In the case of CCCCCC/C=C/C=C/CCCCCCCC(=O)O, the MIC [2] is reported as 200 µg/mL (≈ 713 µM) and the MIC [10] is reported as less than 20 µM.
Nc1nc(N)c(-c2ccc(C(=O)Nc3cccc(OC(F)(F)F)c3)cc2)c(OCc2cncs2)n1 showed an MIC [11] of 6.25 µg/mL (≈ 12.4 µM).
C=CCNC(=S)NNC(=S)NCC=C showed an MIC [1] of 0.5 µg/mL (≈ 2.17 µM).
Compound N=C(N)c1ccc(/N=N/Nc2ccc(C(=N)N)cc2)cc1 has an inhibition [12] of 58%.
Work on CCCOC(=O)CSC1=C(C(=O)O)N2C(=O)[C@H]([C@@H](C)O)[C@H]2[C@H]1C yielded an MIC90 [4] of 1 µg/mL (≈ 2.91 µM).
Compound O=c1c2ccccc2[se]n1-c1ccccc1 [EBSELEN] has an MIC50 [9] of 12.5 µg/mL (≈ 45.6 µM).
COc1nc2ccc(Br)cc2cc1[C@@H](c1ccccc1)[C@@](O)(CCN(C)C)c1cccc2ccccc12 [BEDAQUILINE] gave an MIC [13] of 0.06 µg/mL (≈ 0.108 µM).
Work on NC(=O)c1cnccn1 [PYRAZINAMIDE] yielded an MIC [1] of 0.01 µg/mL (≈ 0.0812 µM).
CCCCC/C=C\C=C\CCCCCCCCC(=O)O showed an MIC [10] of less than 20 µg/mL.
Compound COc1ccc2nc3cc(Cl)ccc3c(Nc3cc(CN4CCCC4)c(O)c(CN4CCCC4)c3)c2n1 [PYRONARIDINE] has an MIC [14] of 5 µg/mL (≈ 9.65 µM).
With CC(C)CC(N)C(=O)NCC(=O)NC[C@H](C)B1OC2CC3CC(C3(C)C)[C@@]2(C)O1.Cl (some centres not stated) the MIC [9] was no more than 5 µg/mL.
In the case of NNC(=O)c1ccncc1 [ISONIAZID], the MIC [1] is reported as 0.01 µg/mL (≈ 0.0729 µM).
CC(C)C[C@H](N)C(=O)NCC(=O)NC[C@H](Cc1ccccc1)B(O)O gave an MIC [9] of no more than 5 µg/mL.
In the case of CC(C)C[C@H](NC(=O)[C@H](Cc1ccccc1)NC(=O)c1cnccn1)B(O)O [BORTEZOMIB], the MIC50 [15] is reported as 4.3 µM (≈ 1.65 µg/mL).
For CCCCC(CC)CNC(=N)NC(=N)NCCCCCCNC(=N)NC(=N)NCC(CC)CCCC.Cl.Cl (configuration not stated) [ALEXIDINE DIHYDROCHLORIDE], the MIC99 [16] was 0.05 µg/mL.
Work on O=C(Nc1cccc2c(=O)cc(-c3nnn[nH]3)oc12)c1ccc(OCCCCc2ccccc2)cc1 [PRANLUKAST] yielded an MIC90 [17] of 5 µg/mL (≈ 10.4 µM).
In the case of CCC(C)(C)C(=O)O[C@H]1C[C@@H](C)C=C2C=C[C@H](C)[C@H](CC[C@@H]3C[C@@H](O)CC(=O)O3)[C@H]21 [SIMVASTATIN], the MIC [9] is reported as greater than 320 µM.
C=C1C[C@@]23CCC4[C@H](C(=O)O)CCC[C@@]4(C)[C@@H]2CC[C@@H]1C3 (some centres not stated) was tested, and the MIC [10] was 0.5 µg/mL.
Compound CC(C)(C)c1ccc(-c2nn(-c3ccccc3)cc2Cn2ccnc2)cc1 has an MIC [3] of 1.56 µg/mL (≈ 4.38 µM).
Work on C[C@@H](CNC(=O)CNC(=O)C(N)CC(=O)O)B1OC2CC3CC(C3(C)C)[C@@]2(C)O1.Cl (some centres not stated) yielded an MIC [9] of no more than 5 µg/mL.
In the case of CN(NC(=O)CC(=O)NN(C)C(=S)c1ccccc1)C(=S)c1ccccc1 [ELESCLOMOL], the “fold change (FC)” value [18] is reported as greater than 65 and the MIC99 [19] is reported as 4 µg/mL.
Work on C[C@@H](O)[C@H]1C(=O)N2C(C(=O)O)=C(S[C@@H]3CN[C@H](CNS(N)(=O)=O)C3)[C@H](C)[C@H]12 (mixture of isomers) [DORIPENEM] yielded an MIC90 [4] of 1 µg/mL.
CO[C@H]1/C=C/O[C@@]2(C)Oc3c(C)c(O)c4c(O)c(c(/C=N/N5CCN(C)CC5)c(O)c4c3C2=O)NC(=O)/C(C)=C\C=C\[C@H](C)[C@H](O)[C@@H](C)[C@@H](O)[C@@H](C)[C@H](OC(C)=O)[C@@H]1C [RIFAMPIN] gave an MIC [1] of 0.01 µg/mL (≈ 0.0122 µM).
With C[C@@H](O)[C@H]1C(=O)N2C(C(=O)[O-])=C(SCC(=O)OC3CCCCC3)[C@H](C)[C@H]12.[Na+] the MIC90 [4] was 1 µg/mL.
In the case of O=C(N[C@@H](Cc1ccccn1)C(=O)N[C@@H](CCc1ccccc1)B(O)O)c1cnccn1, the MIC50 [15] is reported as 2.5 µM (≈ 1.08 µg/mL).
With CC(C)C[C@@H](N)C(=O)NCC(=O)NC[C@H](Cc1ccccc1)B(O)O.Cl the MIC [9] was no more than 5 µg/mL.
Compound C[C@H]1O[C@H](O[C@H]2[C@H](O)[C@@H](O)[C@@H](O[C@H]3[C@H](O)[C@@H](O)C(O)O[C@@H]3CO)O[C@@H]2CO)[C@H](O)[C@@H](O)[C@@H]1N[C@H]1C=C(CO)[C@@H](O)[C@H](O)[C@H]1O (some centres not stated) [ACARBOSE] has an MIC [1] of 0.05 µg/mL (≈ 0.0774 µM).
Work on C[C@@H](O)[C@H]1C(=O)N2C(C(=O)[O-])=C(SC3Cn4cnc[n+]4C3)[C@H](C)[C@H]12 (some centres not stated) [BIAPENEM] yielded an MIC90 [20] of 2.5 µg/mL (≈ 7.13 µM).
C[C@@H](O)[C@H]1C(=O)N2C(C(=O)O)=C(SC3CN(C4=NCCS4)C3)[C@H](C)[C@H]12 [TEBIPENEM] showed an MIC90 [20] of 1.25 µg/mL (≈ 3.26 µM).
In the case of CCCCCC/C=C/C=C\CCCCCCCC(=O)O, the MIC [10] is reported as less than 20 µg/mL.
